Legend:
[1] = Oral bioavailability in rat; assay type: ADME, organism-based; conditions: in vivo
in vivo [2] = conditions: dog
in vivo [3] = conditions: dog, po
in vivo [4] = conditions: dog; remark: listed apart in the source
[5] = Half life in monkey; assay type: ADME, organism-based, Macaca mulatta; conditions: rhesus monkey, in vivo
[6] = Volume of distribution at steady state in monkey; assay type: ADME, organism-based, Macaca mulatta; conditions: rhesus monkey, in vivo; read-out: Vdss
[7] = Clearance in monkey; assay type: ADME, organism-based, Macaca mulatta; conditions: rhesus monkey, in vivo
Canis familiaris = species: Canis familiaris; test: Plasma concentration in dog; assay type: ADME, organism-based, Canis lupus familiaris; conditions: in vivo
[8] = Drug excretion in human feces; assay type: ADME, tissue-based; conditions: faeces, read-out: Activity
[9] = Volume of distribution at steady state in rat; assay type: ADME, organism-based; conditions: in vivo, read-out: Vdss
Rattus norvegicus = species: Rattus norvegicus; test: (§1) Clearance in rat; assay type: ADME, organism-based; conditions: in vivo
[10] = Oral bioavailability in chimpanzee; assay type: ADME, organism-based, Pan troglodytes; conditions: in vivo
[11] = Half life in po dosed human; assay type: ADME, organism-based; conditions: in vivo
[12] = Drug excretion in human urine; assay type: ADME, tissue-based; conditions: read-out: Activity
[13] = Volume of distribution in chimpanzee; assay type: ADME, organism-based, Pan troglodytes; conditions: in vivo
[14] = Oral bioavailability in monkey; conditions: in vivo
[15] = Half life in rat; assay type: ADME, organism-based; conditions: in vivo
in vivo [16] = conditions: dog; remark: listed apart in the source
[17] = Clearance in human; assay type: ADME, organism-based; conditions: in vivo
[18] = Half life in human; assay type: ADME, organism-based; conditions: in vivo
[19] = Tmax in po dosed human; assay type: ADME, organism-based; conditions: in vivo
[20] = Drug excretion in rat urine; assay type: ADME; conditions: read-out: Activity
[21] = Drug excretion in dog feces; assay type: ADME, tissue-based, Canis lupus familiaris; conditions: faeces, read-out: Activity
[22] = Drug excretion in rat feces; assay type: ADME, tissue-based; conditions: faeces, read-out: Activity
[23] = Drug excretion in dog urine; assay type: ADME, Canis lupus familiaris; conditions: read-out: Activity
[24] = as §1; assay type: ADME, organism-based; conditions: in vivo

CS(=O)(=O)c1ccccc1-c1ccc(NC(=O)[C@H]2C[C@@H](O)CN2C(=O)Nc2ccc(Cl)cc2)c(F)c1
bioavailability [1]: 17%

CO[C@@H]1C[C@H](C(=O)Nc2ccc(-n3ccccc3=O)cc2F)N(C(=O)Nc2ccc(Cl)cc2)C1 [ERIBAXABAN]
Vd (in vivo [2]): 0.87 L/kg | bioavailability [1]: 82% | bioavailability (in vivo [3]): 41% | clearance (in vivo [4]): 2.5 mL/min/kg

CN1CCc2nc(C(=O)N[C@@H]3C[C@@H](C(=O)N(C)C)CC[C@@H]3NC(=O)c3cc4cc(Cl)ccc4[nH]3)sc2C1
half-life [5]: 1.5 h | Vd [6]: 1.49 L/kg | clearance [7]: 12.4 mL/min/kg

Nc1nccc2ccc(CN3CC[C@H](NS(=O)(=O)c4cc5ncccc5s4)C3=O)cc12
bioavailability (in vivo [3]): 33% | concentration (Canis familiaris): 2700 nM

COc1ccc(-n2nc(C(N)=O)c3c2C(=O)N(c2ccc(N4CCCCC4=O)cc2)CC3)cc1 [APIXABAN]
dose excreted [8]: 47% | Vd (in vivo [2]): 0.2 L/kg | Vd [9]: 0.31 L/kg | clearance (Rattus norvegicus): 4.33 mL/min/kg | bioavailability [10]: 51% | half-life [11]: 8 h | bioavailability (in vivo [3]): > 50% | clearance (in vivo [4]): 0.333 mL/min/kg | dose excreted [12]: 25% | Vd [13]: 0.17 L/kg

COC[C@@H](NC(=O)c1ccc(Cl)s1)C(=O)Nc1ccc(N2CCOCC2=O)c(C)c1
bioavailability [1]: 60% | bioavailability (in vivo [3]): 60% | bioavailability [14]: 80% | clearance [7]: 4.17 mL/min/kg

CN1CCc2nc(C(=O)N[C@@H]3C[C@@H](C(=O)N(C)C)CC[C@@H]3NC(=O)C(=O)Nc3ccc(Cl)cn3)sc2C1 [EDOXABAN]
bioavailability [14]: 50%

CN1CCC(N2CCN(C(=O)[C@H](NC(=O)c3ccc4cc[nH]c4c3)c3ccccc3)CC2)CC1 [LY-517717]
half-life [15]: 7 h | half-life (in vivo [16]): 7 h | bioavailability [1]: 25% | bioavailability (in vivo [3]): 25%

O=C1CN(S(=O)(=O)c2cc3ccc(Cl)cc3s2)CCN1Cc1cc2c[nH]ccc-2n1
half-life (in vivo [16]): 0.6 h | bioavailability (in vivo [3]): 46%

CC(=N)N1CCC(Oc2ccc(N(Cc3ccc4ccc(C(=N)N)cc4c3)S(=O)(=O)CC(=O)O)cc2)CC1 [YM-60828]
bioavailability [14]: 20%

CN(C)C(=N)c1ccc(NC(=O)c2cc(C(F)(F)F)nn2-c2cc3ccccc3cc2F)c(F)c1
bioavailability [1]: 47%

CC(=N)N1CC[C@H](Oc2ccc([C@H](Cc3ccc4ccc(C(=N)N)cc4c3)C(=O)O)cc2)C1 [DX-9065A]
clearance [17]: 120 mL/min | half-life [18]: > 20 h

CN(C)Cc1ccccc1-c1ccc(C(=O)Nc2ccc(Cl)cc2C(=O)Nc2ccc(Cl)cn2)cc1
bioavailability [1]: 100%

CS(=O)(=O)c1cc(F)ccc1N1CCN(C(=O)[C@H](NC(=O)c2ccc3ccnc(N)c3c2)c2ccccc2)CC1
bioavailability [1]: 27%

O=C(NC[C@H]1CN(c2ccc(N3CCOCC3=O)cc2)C(=O)O1)c1ccc(Cl)s1 [RIVAROXABAN]
Tmax [19]: 1.3 h | Vd (in vivo [2]): 0.4 L/kg | dose excreted [20]: 25% | dose excreted [21]: 43% | half-life [15]: 1.2 h | Vd [9]: 0.3 L/kg | half-life (in vivo [16]): 0.9 h | bioavailability [1]: 57% | bioavailability (in vivo [3]): 60% | dose excreted [22]: 67% | clearance (in vivo [4]): 5 mL/min/kg | dose excreted [23]: 52%

O=C1CN(S(=O)(=O)/C=C/c2ccc(Cl)s2)CCN1Cc1cc2c[nH]ccc-2n1
half-life (in vivo [16]): 0.867 h | bioavailability (in vivo [3]): 97%

CO[C@@H]1C[C@H](C(=O)Nc2ccc(-c3ccccc3S(C)(=O)=O)cc2F)N(C(=O)Nc2ccc(Cl)cc2)C1
bioavailability [1]: 28%

CN(C)Cc1nccn1-c1ccc(N2CC[C@H](NS(=O)(=O)/C=C/c3ccc(Cl)s3)C2=O)c(F)c1
half-life [15]: 1 h | Vd [9]: 0.6 L/kg | clearance [24]: 13 mL/min/kg | bioavailability [1]: 52%

Cc1cc(C(=O)Nc2ccc(-n3ccnc3CN(C)C)cc2F)n(-c2ccc3cc(Cl)ccc3c2)n1
half-life [15]: 7.2 h | bioavailability [1]: 35%

Cc1ncc2n1C(=O)N(C1CCN(C(=O)CCS(=O)(=O)c3ccc4cc(Cl)ccc4c3)CC1)C2
bioavailability [14]: 46%

Cc1cc2cc(N=C(NC#N)N[C@H]3CCCCN(CC(=O)N4CCCC4)C3=O)ccc2o1
bioavailability [1]: 50%

CN(C)Cc1ccc(C(=O)Nc2ccc(Cl)cc2C(=O)Nc2ccc(Cl)cn2)cc1
Vd [9]: 33 L/kg | bioavailability [1]: 100%

O=C(Nc1ccc(-n2ccccc2=O)cn1)[C@H]1C[C@](O)(c2ccc(F)cc2F)CN1C(=O)Nc1ccc(Cl)cc1
half-life (in vivo [16]): 12.6 h

CCCCOC(=O)COc1cc(-c2ccccc2S(C)(=O)=O)ccc1CCNS(=O)(=O)c1cc(C(=N)NO)ccc1O
bioavailability [1]: 15%

CN(C)Cc1nccn1-c1ccc(NC(=O)c2cc(C(F)(F)F)nn2-c2ccc3onc(N)c3c2)cc1
Vd (in vivo [2]): 4.5 L/kg | half-life (in vivo [16]): 1.6 h | bioavailability (in vivo [3]): 16% | clearance (in vivo [4]): 41.7 mL/min/kg

NCc1ccccc1-n1nc(C(F)(F)F)cc1C(=O)Nc1ccc(-c2ccccc2S(N)(=O)=O)cc1F
bioavailability (in vivo [3]): 100%

O=C([C@H](O)CS(=O)(=O)c1ccc2cc(Cl)ccc2c1)N1CCC(N2CCCNC2=O)CC1 [LETAXABAN]
Vd [6]: 0.579 L/kg | bioavailability [14]: 52.5% | clearance [7]: 11.8 mL/min/kg
